The results in this text go back to paper PMC6522981, “Structure-based design generated novel hydroxamic acid based preferential HDAC6 lead inhibitor with on-target cytotoxic activity against primary choroid plexus carcinoma” (Journal of Enzyme Inhibition and Medicinal Chemistry, 2019).

As usually defined, the inhibition is how much of the control response was suppressed. As usually defined, the IC50 is the point on the concentration scale where inhibition reaches its midpoint. What is called melting point is the temperature, or range, at which the solid turns liquid.

T1 sequence (Q13547 whole entry): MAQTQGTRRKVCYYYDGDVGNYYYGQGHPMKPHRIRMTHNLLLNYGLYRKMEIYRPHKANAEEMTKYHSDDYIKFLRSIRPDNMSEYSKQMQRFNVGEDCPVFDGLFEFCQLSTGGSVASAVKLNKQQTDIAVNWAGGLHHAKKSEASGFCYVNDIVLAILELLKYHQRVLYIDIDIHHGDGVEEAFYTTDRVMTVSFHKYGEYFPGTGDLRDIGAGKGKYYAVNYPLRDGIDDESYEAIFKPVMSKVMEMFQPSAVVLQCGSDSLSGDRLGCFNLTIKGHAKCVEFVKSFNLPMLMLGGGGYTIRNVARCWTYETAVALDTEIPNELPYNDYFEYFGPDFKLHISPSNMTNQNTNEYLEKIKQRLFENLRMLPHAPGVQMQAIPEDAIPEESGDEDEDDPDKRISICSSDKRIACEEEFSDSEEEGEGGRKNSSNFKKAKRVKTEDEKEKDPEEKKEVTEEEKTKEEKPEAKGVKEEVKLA
T2 sequence (Q92769 whole entry): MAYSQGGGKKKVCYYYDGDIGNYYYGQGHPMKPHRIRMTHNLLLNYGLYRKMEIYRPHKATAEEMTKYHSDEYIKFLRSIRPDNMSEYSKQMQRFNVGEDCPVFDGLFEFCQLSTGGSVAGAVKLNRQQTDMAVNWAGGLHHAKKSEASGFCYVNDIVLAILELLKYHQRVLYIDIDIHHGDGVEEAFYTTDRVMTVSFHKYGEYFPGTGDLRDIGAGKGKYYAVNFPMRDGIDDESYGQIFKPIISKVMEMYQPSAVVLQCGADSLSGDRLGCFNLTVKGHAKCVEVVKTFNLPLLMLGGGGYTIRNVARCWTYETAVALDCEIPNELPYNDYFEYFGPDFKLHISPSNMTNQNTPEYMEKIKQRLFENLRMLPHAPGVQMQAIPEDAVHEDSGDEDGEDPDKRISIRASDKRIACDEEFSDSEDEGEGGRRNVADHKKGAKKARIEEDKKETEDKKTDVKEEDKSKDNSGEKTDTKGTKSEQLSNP

One data set addresses T1, human HDAC1 (Homo sapiens, UniProt Q13547).
T1 construct: purchased BPS Bioscience 50051
Briefly: HDAC1 inhibitor enzymatic assay, % inhibition at fixed concentration (BPS Bioscience, fluorogenic). The class given is biochemical. The conditions noted are these: read-out: %inhibition of HDACs at 10µM of test compound HDAC1; 10 µM compound; mean of two replicates.
Regarding `O=C(CSc1nc2ccccc2n1Cc1ccccc1)NO` [Compound 6a, 2-((1-benzyl-1H-benzo[d]imidazol-2-yl)thio)-N-hydroxyacetamide], the inhibition at 10 µM came out at 6%.
Same read-out and setting: to `O=C(CSc1nc2ccccc2n1Cc1ccc(Br)cc1)NO` [Compound 6b, 2-((1–(4-bromobenzyl)-1H-benzo[d]imidazol-2-yl)thio)-N-hydroxyacetamide] belongs 18%; to `O=C(CSc1nc2ccccc2n1CC1CCCCC1)NO` [Compound 6c, 2-((1-(Cyclohexylmethyl)-1H-benzo[d]imidazol-2-yl)thio)-N-hydroxyacetamide], 13%.
On to `O=C(CSc1nc2ccccc2n1CCC1CCCCC1)NO` [Compound 6d, 2-((1–(2-cyclohexylethyl)-1H-benzo[d]imidazol-2-yl)thio)-N-hydroxyacetamide], for which the inhibition at 10 µM was 14%.
The same measure, in the same setting: to `O=C(CCCSc1nc2ccccc2n1Cc1ccc(Br)cc1)NO` [Compound 10b, 4-((1–(4-bromobenzyl)-1H-benzo[d]imidazol-2-yl)thio)-N-hydroxybutanamide] belongs 9%; to `O=C(CCCSc1nc2ccccc2n1CC1CCCCC1)NO` [Compound 10c, 4-((1-(Cyclohexylmethyl)-1H-benzo[d]imidazol-2-yl)thio)-N-hydroxybutanamide], 9%.
For `O=C(CCCSc1nc2ccccc2n1CCC1CCCCC1)NO` [Compound 10d, 4-((1–(2-cyclohexylethyl)-1H-benzo[d]imidazol-2-yl)thio)-N-hydroxybutanamide], the inhibition at 10 µM came to 11%.

A further data set concerns the target T2, human HDAC2 (Homo sapiens, UniProt Q92769).
T2 construct: purchased BPS Bioscience 50002
Nature of the data set: HDAC2 inhibitor enzymatic assay, % inhibition at fixed concentration. The class given is biochemical. The conditions noted are these: read-out: %inhibition of HDACs at 10µM of test compound HDAC2; 10 µM compound; mean of two replicates.
Consider `O=C(CSc1nc2ccccc2n1Cc1ccccc1)NO` [Compound 6a, 2-((1-benzyl-1H-benzo[d]imidazol-2-yl)thio)-N-hydroxyacetamide], for which the inhibition at 10 µM turned out to be 5%.
As to `O=C(CSc1nc2ccccc2n1Cc1ccc(Br)cc1)NO` [Compound 6b, 2-((1–(4-bromobenzyl)-1H-benzo[d]imidazol-2-yl)thio)-N-hydroxyacetamide], the inhibition at 10 µM stood at 6%.
The same measure, in the same setting: in the case of `O=C(CSc1nc2ccccc2n1CC1CCCCC1)NO` [Compound 6c, 2-((1-(Cyclohexylmethyl)-1H-benzo[d]imidazol-2-yl)thio)-N-hydroxyacetamide] it was 7%; in that of `O=C(CSc1nc2ccccc2n1CCC1CCCCC1)NO` [Compound 6d, 2-((1–(2-cyclohexylethyl)-1H-benzo[d]imidazol-2-yl)thio)-N-hydroxyacetamide], 3%; in that of `O=C(CCCSc1nc2ccccc2n1Cc1ccc(Br)cc1)NO` [Compound 10b, 4-((1–(4-bromobenzyl)-1H-benzo[d]imidazol-2-yl)thio)-N-hydroxybutanamide], 9%.
As for `O=C(CCCSc1nc2ccccc2n1CC1CCCCC1)NO` [Compound 10c, 4-((1-(Cyclohexylmethyl)-1H-benzo[d]imidazol-2-yl)thio)-N-hydroxybutanamide], the inhibition at 10 µM amounted to 8%.
Same read-out and setting: in the case of `O=C(CCCSc1nc2ccccc2n1CCC1CCCCC1)NO` [Compound 10d, 4-((1–(2-cyclohexylethyl)-1H-benzo[d]imidazol-2-yl)thio)-N-hydroxybutanamide] it was 8%.

A further data set has as its target T3, human HDAC8 (Homo sapiens, UniProt Q9BY41).
T3 construct: purchased BPS Bioscience 50008
T3 sequence (Q9BY41 1-377): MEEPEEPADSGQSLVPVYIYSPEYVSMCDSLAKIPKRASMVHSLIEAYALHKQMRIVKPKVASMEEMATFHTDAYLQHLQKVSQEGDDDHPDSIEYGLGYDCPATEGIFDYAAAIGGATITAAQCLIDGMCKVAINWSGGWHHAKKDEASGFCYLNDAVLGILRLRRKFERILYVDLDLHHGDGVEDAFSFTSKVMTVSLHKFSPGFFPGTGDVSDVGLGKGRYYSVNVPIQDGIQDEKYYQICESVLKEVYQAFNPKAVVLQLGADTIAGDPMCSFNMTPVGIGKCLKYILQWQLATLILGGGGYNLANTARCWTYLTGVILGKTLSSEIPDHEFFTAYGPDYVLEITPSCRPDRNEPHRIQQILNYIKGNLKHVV
Briefly: HDAC8 inhibitor enzymatic assay, % inhibition at fixed concentration. The settings on record: read-out: %inhibition of HDACs at 10µM of test compound HDAC8; 10 µM compound. The class given is biochemical.
As to `O=C(CSc1nc2ccccc2n1Cc1ccccc1)NO` [Compound 6a, 2-((1-benzyl-1H-benzo[d]imidazol-2-yl)thio)-N-hydroxyacetamide], the inhibition at 10 µM stood at 14%.
The same measure, in the same setting: to `O=C(CSc1nc2ccccc2n1Cc1ccc(Br)cc1)NO` [Compound 6b, 2-((1–(4-bromobenzyl)-1H-benzo[d]imidazol-2-yl)thio)-N-hydroxyacetamide] belongs 12%.
Same read-out and setting: to `O=C(CSc1nc2ccccc2n1CC1CCCCC1)NO` [Compound 6c, 2-((1-(Cyclohexylmethyl)-1H-benzo[d]imidazol-2-yl)thio)-N-hydroxyacetamide] belongs 14%.
Same read-out and setting: to `O=C(CSc1nc2ccccc2n1CCC1CCCCC1)NO` [Compound 6d, 2-((1–(2-cyclohexylethyl)-1H-benzo[d]imidazol-2-yl)thio)-N-hydroxyacetamide] belongs 1%; to `O=C(CCCSc1nc2ccccc2n1Cc1ccc(Br)cc1)NO` [Compound 10b, 4-((1–(4-bromobenzyl)-1H-benzo[d]imidazol-2-yl)thio)-N-hydroxybutanamide], 1%.
Turning to `O=C(CCCSc1nc2ccccc2n1CC1CCCCC1)NO` [Compound 10c, 4-((1-(Cyclohexylmethyl)-1H-benzo[d]imidazol-2-yl)thio)-N-hydroxybutanamide], the inhibition at 10 µM amounted to 12%.
Still for that read-out and setting: to `O=C(CCCSc1nc2ccccc2n1CCC1CCCCC1)NO` [Compound 10d, 4-((1–(2-cyclohexylethyl)-1H-benzo[d]imidazol-2-yl)thio)-N-hydroxybutanamide] belongs 10%.

For the next data set, the system named is CCHE-45 cells (primary choroid plexus carcinoma). Nature of the data set: Cytotoxicity assay using xCELLigence system. The conditions noted are these: xCELLigence, 96 h exposure; mean of three replicates; read-out: CCHE-45 IC50 (µM)±SEM. In kind it is cell-based. The protocol:
Established primary Choroid plexus carcinoma (CCHE-45) were cultured as previously described, in RPMI-1640 (Lonza, BE-12-702F) supplemented with 10% Fetal Bovine Serum (FBS, Gibco, 12483–020) and 100 U/ml penicillin and 100 µg/ml streptomycin (Lonza, DE17-602F). Cells were maintained at 37 °C in a 5% CO2 humidified atmosphere.
Cytotoxicity assay by the xCELLigence system was performed using RTCA xCELLigence DP system (ACEA Biosciences, Inc., San Diego, CA, USA) as per manufacturer’s instructions https://www.aceabio.com/products/rtca-dp/, https://www.aceabio.com/products/rtca-sp[65–68]. In brief, after setting up the instruments and blanking the wells with media, CCHE-45 cells were seeded into the 96 well E-plate (ACEA Biosciences) with a density of 20,000 cells/well. Attachment and growth of the cells were monitored every 1 h. Approximately 24 h after seeding, when the cells were in the log growth phase, the cells were exposed to a range of test compound 10a concentrations (3.125, 6.25, 12.5, 25, 50, 100, 200, 400) µM for 96 h. Controls received either medium alone, or medium + DMSO with a final concentration below of 0.5%. For each concentration, duplicates were tested. Experiments were conducted in three biological repeats. Results were analyzed using the RTCA software (Version 2.0). Data was exported and average IC50 value was analyzed.
• Based on previous pilot experiment, the highest SK114 conc. (100µM)
72hrs, thus this experiment was performed with higher concentration
• Cells were incubated with the drug for 96hrs
• Experiment was done in technical duplicates
For the molecule `O=C(CCCCCCC(=O)Nc1ccc([C@H]2O[C@@H](CSc3nc(-c4ccccc4)c(-c4ccccc4)o3)C[C@@H](c3ccc(CO)cc3)O2)cc1)NO` [Tubacin, reference compound], the IC50 amounted to 20 ± 10.2 µM.

Test system in the next data set: not given
Assay: not given
Conditions: not given
`O=C(CSc1nc2ccccc2n1Cc1ccccc1)NO` [Compound 6a, 2-((1-benzyl-1H-benzo[d]imidazol-2-yl)thio)-N-hydroxyacetamide] displayed a melting point of 97 °C.
Still for that read-out and setting: to `O=C(CSc1nc2ccccc2n1Cc1ccc(Br)cc1)NO` [Compound 6b, 2-((1–(4-bromobenzyl)-1H-benzo[d]imidazol-2-yl)thio)-N-hydroxyacetamide] belongs 167 °C; to `O=C(CSc1nc2ccccc2n1CC1CCCCC1)NO` [Compound 6c, 2-((1-(Cyclohexylmethyl)-1H-benzo[d]imidazol-2-yl)thio)-N-hydroxyacetamide], 160 °C; to `O=C(CSc1nc2ccccc2n1CCC1CCCCC1)NO` [Compound 6d, 2-((1–(2-cyclohexylethyl)-1H-benzo[d]imidazol-2-yl)thio)-N-hydroxyacetamide], 157 °C.
Same read-out and setting: to `O=C(CCCSc1nc2ccccc2n1Cc1ccc(Br)cc1)NO` [Compound 10b, 4-((1–(4-bromobenzyl)-1H-benzo[d]imidazol-2-yl)thio)-N-hydroxybutanamide] belongs 153 °C; to `O=C(CCCSc1nc2ccccc2n1CC1CCCCC1)NO` [Compound 10c, 4-((1-(Cyclohexylmethyl)-1H-benzo[d]imidazol-2-yl)thio)-N-hydroxybutanamide], 149 °C; to `O=C(CCCSc1nc2ccccc2n1CCC1CCCCC1)NO` [Compound 10d, 4-((1–(2-cyclohexylethyl)-1H-benzo[d]imidazol-2-yl)thio)-N-hydroxybutanamide], 132 °C.

In another data set the target is T4, human HDAC6 (Homo sapiens, UniProt Q9UBN7).
T4 sequence (Q9UBN7 1-1215): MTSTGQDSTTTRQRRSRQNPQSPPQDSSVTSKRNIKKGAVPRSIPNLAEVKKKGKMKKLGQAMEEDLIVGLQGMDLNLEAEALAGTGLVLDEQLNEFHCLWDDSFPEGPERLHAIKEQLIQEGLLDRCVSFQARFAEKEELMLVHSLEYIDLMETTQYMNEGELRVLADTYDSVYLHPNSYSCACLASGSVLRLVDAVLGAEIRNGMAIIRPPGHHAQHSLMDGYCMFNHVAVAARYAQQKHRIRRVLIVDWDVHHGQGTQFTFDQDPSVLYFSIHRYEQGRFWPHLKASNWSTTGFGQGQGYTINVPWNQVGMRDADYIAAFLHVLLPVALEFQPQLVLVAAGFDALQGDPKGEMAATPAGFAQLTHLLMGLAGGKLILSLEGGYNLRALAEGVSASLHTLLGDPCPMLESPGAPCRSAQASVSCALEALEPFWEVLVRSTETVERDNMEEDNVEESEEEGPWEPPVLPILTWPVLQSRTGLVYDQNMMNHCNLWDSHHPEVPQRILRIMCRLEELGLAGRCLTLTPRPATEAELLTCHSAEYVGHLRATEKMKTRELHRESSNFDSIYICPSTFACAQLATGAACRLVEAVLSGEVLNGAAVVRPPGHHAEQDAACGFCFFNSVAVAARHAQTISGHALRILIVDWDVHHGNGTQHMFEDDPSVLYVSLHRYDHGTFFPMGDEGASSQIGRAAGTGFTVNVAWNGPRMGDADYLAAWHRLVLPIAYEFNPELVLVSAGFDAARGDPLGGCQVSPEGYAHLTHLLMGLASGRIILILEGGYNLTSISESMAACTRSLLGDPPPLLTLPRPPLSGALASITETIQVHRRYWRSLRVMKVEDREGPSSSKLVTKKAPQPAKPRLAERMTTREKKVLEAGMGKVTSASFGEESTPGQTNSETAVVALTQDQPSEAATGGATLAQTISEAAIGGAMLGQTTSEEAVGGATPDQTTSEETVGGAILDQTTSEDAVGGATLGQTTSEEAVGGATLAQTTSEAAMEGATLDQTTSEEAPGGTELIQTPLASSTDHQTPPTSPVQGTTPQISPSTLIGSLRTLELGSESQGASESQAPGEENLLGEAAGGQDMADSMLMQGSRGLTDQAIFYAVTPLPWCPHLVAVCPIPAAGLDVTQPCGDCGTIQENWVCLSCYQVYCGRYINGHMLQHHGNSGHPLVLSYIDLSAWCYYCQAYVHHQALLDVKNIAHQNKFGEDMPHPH
Briefly: HDAC6 inhibitor enzymatic assay, % inhibition at fixed concentration. The conditions noted are these: read-out: %inhibition of HDACs at 10µM of test compound HDAC6.
As for `O=C(CSc1nc2ccccc2n1Cc1ccccc1)NO` [Compound 6a, 2-((1-benzyl-1H-benzo[d]imidazol-2-yl)thio)-N-hydroxyacetamide], the inhibition at 10 µM is 2%.
For `O=C(CSc1nc2ccccc2n1Cc1ccc(Br)cc1)NO` [Compound 6b, 2-((1–(4-bromobenzyl)-1H-benzo[d]imidazol-2-yl)thio)-N-hydroxyacetamide], the inhibition at 10 µM is 6%.
On the same count and under the same terms, in the case of `O=C(CSc1nc2ccccc2n1CC1CCCCC1)NO` [Compound 6c, 2-((1-(Cyclohexylmethyl)-1H-benzo[d]imidazol-2-yl)thio)-N-hydroxyacetamide] it was 2%; in that of `O=C(CSc1nc2ccccc2n1CCC1CCCCC1)NO` [Compound 6d, 2-((1–(2-cyclohexylethyl)-1H-benzo[d]imidazol-2-yl)thio)-N-hydroxyacetamide], 2%; in that of `O=C(CCCSc1nc2ccccc2n1Cc1ccc(Br)cc1)NO` [Compound 10b, 4-((1–(4-bromobenzyl)-1H-benzo[d]imidazol-2-yl)thio)-N-hydroxybutanamide], 12%.
On to `O=C(CCCSc1nc2ccccc2n1CC1CCCCC1)NO` [Compound 10c, 4-((1-(Cyclohexylmethyl)-1H-benzo[d]imidazol-2-yl)thio)-N-hydroxybutanamide], for which the inhibition at 10 µM worked out at 14%.
`O=C(CCCSc1nc2ccccc2n1CCC1CCCCC1)NO` [Compound 10d, 4-((1–(2-cyclohexylethyl)-1H-benzo[d]imidazol-2-yl)thio)-N-hydroxybutanamide]: the inhibition at 10 µM is 35%.
